Data taken from BindingDB's records for doi:10.3109/14756366.2012.750311 (Atatürk University, 2014).
Values belong to the compound of their own block, whether it stands above or below them.

Experiments:
Carbonic anhydrase 2 = Carbonic anhydrase 2 (Homo sapiens, UniProt P00918); test: Hydratase and Esterase Activity Assays
Protocol: (§1) The effect of novel sulfonamides 28-33 on HCA isozyme activity was determined colorimetrically using CO2-hydration method of Wilbur and Anderson29 described previously [G l in et al., Biol. Pharm. Bull., 27:613-16]. Esterase activity was determined according to the method described by Verpoorte et al [Verpoorte et al., J. Biol. Chem., 242:4221-9].

Carbonic anhydrase 1 = Carbonic anhydrase 1 (Homo sapiens, UniProt P00915); test: Hydratase and Esterase Activity Assays
Protocol: as §1

Carbonic anhydrase 1, sequence (P00915 whole entry): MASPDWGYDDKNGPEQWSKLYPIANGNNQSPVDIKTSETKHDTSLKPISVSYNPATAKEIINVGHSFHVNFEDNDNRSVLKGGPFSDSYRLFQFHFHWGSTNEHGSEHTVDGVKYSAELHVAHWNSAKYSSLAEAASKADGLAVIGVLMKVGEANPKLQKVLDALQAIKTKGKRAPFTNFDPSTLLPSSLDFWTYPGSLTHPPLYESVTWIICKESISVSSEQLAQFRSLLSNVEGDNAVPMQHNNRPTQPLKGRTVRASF

SMILES: CS(=O)(=O)NC1CCc2ccccc2C1 (stereo not given) [N-(1,2,3,4-tetrahydronaphthalene-2-yl)methanesulfonamide (31)]
IC50 (Carbonic anhydrase 2): 338 µM
Ki (Carbonic anhydrase 2): 94 µM
Ki (Carbonic anhydrase 1): 228 µM

SMILES: COc1cc2c(cc1OC)C(NS(C)(=O)=O)CC2 (stereo not given) [N-(5,6-dimethoxyindane-1-yl)methanesulfonamide (28)]
Ki (Carbonic anhydrase 2): 215 µM
IC50 (Carbonic anhydrase 1): 487 µM
Ki (Carbonic anhydrase 1): 52 µM

SMILES: COc1cc2c(cc1OC)CC(NS(C)(=O)=O)C2 [N-(5,6-dimethoxy-2,3-dihydro-1H-inden-2-yl)methanesulfonamide (32)]
Ki (Carbonic anhydrase 2): 372 µM
IC50 (Carbonic anhydrase 1): 266 µM
Ki (Carbonic anhydrase 1): 46 µM

SMILES: COc1cccc2c1CCCC2NS(C)(=O)=O (stereo not given) [N-(5-metoksi-1,2,3,4-tetrahydronaphthalene-1-yl)methanesulfonamide (30)]
Ki (Carbonic anhydrase 2): 112 µM
Ki (Carbonic anhydrase 1): 185 µM

Next, values leading:

Ki (Carbonic anhydrase 2): 170 µM
Ki (Carbonic anhydrase 1): 104 µM
SMILES: CS(=O)(=O)NC1Cc2ccccc2C1 [N-(Indane-2-yl)methanesulfonamide (33)]

Ki (Carbonic anhydrase 2): 211 µM
Ki (Carbonic anhydrase 1): 173 µM
SMILES: CS(=O)(=O)NC1CCc2ccccc21 (stereo not given) [N-(Indane-1-yl)methanesulfonamide (29)]
